From ChEMBL document CHEMBL1121785, “Comparison of solution conformational preferences for the hallucinogens bufotenin and psilocin using 360-MHz proton NMR spectroscopy” (J Med Chem, 1981)

What was measured:
Format in all cases: physicochemical
[1] = Partition coefficient (logP); conditions: octanol/water
[2] = Partition coefficient of octanol and water was determined
[3] = True partition coefficient corrected for ionization was determined; conditions: octanol/water

| Structure (SMILES) | logP [1] | Poct [2] | pKa [3] |
| --- | --- | --- | --- |
| CN(C)CCc1c[nH]c2ccc(O)cc12 [BUFOTENINE] | 1.19 | 0.16 | – |
| CN(C)CCc1c[nH]c2cccc(O)c12 [PSILOCIN] | 1.45 | 0.68 | 3.3 |
